In one data set the target is hTRPA1 (Homo sapiens, UniProt O75762). Put plainly: RNA pull-down assay and immunoblotting. The class given is binding. The procedure: RNA Pull-Down Assay and Immunoblotting. hTRPA1-expressing HEK293 cells of equal amount (5×10^6) were plated onto 60 mm dishes, and 24 hr later, these cells were incubated with biotin-conjugated miR-711 or miR-711 (m6) in extracellular solution containing 140 mM NaCl, 5 mM KCl, 2 mM CaCl2, 1 mM MgCl2, 10 mM HEPES, and 10 mM glucose, adjusted to pH 7.4 for 15 min at 37° C. with 5% CO2. For crosslinking, 1% formaldehyde (vol/vol) was added at 37° C. for 10 min, then 12.5% glycine was applied to stop crosslinking by 5 min incubation at room temperature. Then the cells were collected and sonicated with ultrosonic probe sonicator (80% output, 5 s on and 10 s off) in 1 mL lysis buffer (1% Triton X-100, 50 mM Tris-HCl, 150 mM NaCl, 5 mM EDTA, pH7.4) on ice for 2 min. We then centrifuged the lysate at 13,000 rpm for 10 min at 4° C. and took 50 μL supernatant as lysate control. The remaining supernatant was added 20 μL streptadvilin agrose beads and incubated overnight. The pellets were collected after centrifuge at 6000 rmp for 30 s. For competing assay, miR-711 (10-50 μM) or mutant miR-711 (m6, 10-50 μM) were added 15 min before the incubation with biotin-conjugated miR-711 (10 μM). For immunoblotting, the lysates or beads were incubated in SDS-PAGE loading buffer for 30 min at 50° C., and supernatant was collected after centrifugation at 13000 rpm and decrosslink at 99° C. for 20 min. The samples were separated on an SDS-PAGE gel, transferred, and probed with TRPA1 antibody (1:1000; Alomone labs). The immunoreactive bands were detected with horseradish peroxidase-conjugated secondary antibody, visualized with enhanced chemiluminescence (Thermo scientific, Pittsburgh, Pa.), and quantified with Image-Pro Plus software (Media Cybernetics, Bethesda, Md.). Each experiment was repeated at least three times.
Chain of hTRPA1 (O75762 whole entry): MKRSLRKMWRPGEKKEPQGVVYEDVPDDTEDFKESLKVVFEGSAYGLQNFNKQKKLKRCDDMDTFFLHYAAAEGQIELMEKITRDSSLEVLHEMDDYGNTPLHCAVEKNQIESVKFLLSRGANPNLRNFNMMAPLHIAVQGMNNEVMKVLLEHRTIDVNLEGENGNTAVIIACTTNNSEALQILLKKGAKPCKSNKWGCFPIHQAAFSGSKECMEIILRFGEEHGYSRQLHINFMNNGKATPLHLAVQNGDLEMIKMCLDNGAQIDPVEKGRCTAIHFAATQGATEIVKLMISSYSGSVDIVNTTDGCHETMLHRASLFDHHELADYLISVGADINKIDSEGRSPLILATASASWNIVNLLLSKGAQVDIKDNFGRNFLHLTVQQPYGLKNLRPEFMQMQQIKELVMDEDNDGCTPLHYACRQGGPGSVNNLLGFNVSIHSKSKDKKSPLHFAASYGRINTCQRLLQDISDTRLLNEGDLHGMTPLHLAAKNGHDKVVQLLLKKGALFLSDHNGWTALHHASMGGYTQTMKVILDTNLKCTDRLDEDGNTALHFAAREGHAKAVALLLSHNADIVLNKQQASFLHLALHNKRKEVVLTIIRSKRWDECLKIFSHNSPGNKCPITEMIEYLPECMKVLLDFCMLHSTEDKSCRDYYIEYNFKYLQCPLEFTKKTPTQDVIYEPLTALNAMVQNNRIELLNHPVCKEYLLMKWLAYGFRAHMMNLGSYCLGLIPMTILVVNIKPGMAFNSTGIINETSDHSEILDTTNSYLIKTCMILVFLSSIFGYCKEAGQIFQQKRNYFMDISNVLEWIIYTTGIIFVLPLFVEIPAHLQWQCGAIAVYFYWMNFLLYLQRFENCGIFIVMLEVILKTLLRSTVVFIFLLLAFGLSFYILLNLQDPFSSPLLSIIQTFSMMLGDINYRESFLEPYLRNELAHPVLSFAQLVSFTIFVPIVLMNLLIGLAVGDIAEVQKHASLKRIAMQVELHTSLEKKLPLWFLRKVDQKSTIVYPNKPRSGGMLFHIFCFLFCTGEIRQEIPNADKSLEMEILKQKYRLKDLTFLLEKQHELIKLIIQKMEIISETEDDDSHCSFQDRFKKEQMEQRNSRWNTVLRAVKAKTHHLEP

The subject of a further data set is mice. Description: Persistent itch after intradermal adenovirus (AV) overexpression of hsa-miR-711. The class given is in vivo, mouse. To be noted: 10 days after the AV injection, A-967079 50 μM, hsa-miR-711 inhibitor 100 μM, blocking peptide 2 μM. As to the method: Behavioral Assessment for Scratching (Itch) and Wiping (Pain). Mice were shaved on the cheek or nape after a brief anesthesia with isoflurane. Before experiments, mice were habituated in small plastic chambers (14×18×12 cm) daily for two days. The room temperature and humidity remained stable for all the experiments. […] After the injection, the number of scratches in 60 min was counted. A scratch was counted when a mouse lifted its hind paw to scratch the shaved region and returned the paw to the floor or to the mouth. A bout of wiping was defined as a continuous wiping movement with a forepaw directing at the area of the injection area (Shimada and LaMotte, Pain 2008, 139, 681-687). Scratching and wiping behavior was videoed for 30 min or 60 min using Sony HDR-CX610 camera. The video was subsequently played back offline and the numbers of scratches and wipes were quantified in a blinded manner.
miRNA Measurement by Quantitative Real-Time RT-PCR (qPCR). Total RNA was isolated from serum of CTCL mice or adenovirus-treated mice using Qiazol Lysis Reagent (QIAGEN) together with miRNeasy Serum/Plasma Kit (Park et al., Neuron 2014, 82, 47-54). All RNA samples were immediately used or kept at −80° C. until further processing. To convert mature miRNA into cDNA, 6 μl of total RNA solution were reverse transcribed using the miScript II RT Kit (including polyadenylation of miRNAs and reverse transcription using an oligo-dT that binds to a universal RT-sequence). Specific miRNA levels were quantified by qPCR using miScript SYBR Green Kit including miScript miRNA assay for hsa-miR-711, hsa-miR21, hsamiR155, and hsa-miR-326, together with the universal RT primer, according to the manufacturer's protocol (CFX96 Real-Time system, Bio-Rad). Relative quantities of miRNAs were calculated using the Ct value after normalization to control miRNAs. Caenorhabditis elegans miRNA-39 (cel-miRNA-39) was included as spiked-in control for extracellular miRNA.

For the compound “miR-711: mmu-miR-711: gggacccggggagagauguaag (SEQ ID NO: 5) (GGGACCCGGGGAGAGAUGUAAG; chemistry not given here)”, the “competition with binding of biotin-labeled miR-711 to TRPA1” value with hTRPA1 (10-50 μM added 15 min before biotin-conjugated miR-711 (10 μM)) is on record as “inhibited the binding”.

Regarding `CCC(=N\O)/C(C)=C/c1ccc(F)cc1` [A967079, (1E,3E)-1-(4-Fluorophenyl)-2-methyl-1-pentene-3-one oxime], the “effect on hsa-miR-711 AV-induced persistent itch” value in the data set on mice is on record as “Inhibition”. Turning to “NH2-FRNELAYPVLTFGQL-COOH (H-FRNELAYPVLTFGQL-OH) [blocking peptide]”, in the data set with hTRPA1 (RNA pull-down), the “disruption of the miR-711/TRPA1 interaction” value is “disrupted the miR-711/TRPA1 interaction”. Besides, the “effect on hsa-miR-711 AV-induced persistent itch” value in the data set on mice was “Inhibition”.

Values taken from patent publication US20210283163A1, “COMPOSITIONS AND METHODS FOR THE TREATMENT OF ACUTE AND CHRONIC PRURITIS” (Duke University, priority 2018, published 2021).
